According to PubChem BioAssay AID244 (DTP/NCI, 2004):
Values joined by “and” are separate entries in the source; they are usually repeats but may differ in a detail not shown here. Equal values may be shown once. Inconclusive results are not listed. *1 amine or outer side, *2 acyl side, *3 side chain or, on linkers, in order; H or OH if unused. Where a SMILES comes first, the peptide text is derived from it. Bridges are numbered along the chain shown (N, C = ends). Roman numbers before positions name the chains, in order. [ ]: non-standard residue; d: D form. Actinocin(9to1) = Cc1c2oc3c(C)ccc(C(=O)[*:1])c3nc-2c(C(=O)[*:2])c(N)c1=O; aThr = C[C@H](O)[C@H](N)C(=O)O; NMeV = CN[C@H](C(=O)O)C(C)C; Sar = CNCC(=O)O

Test system: CD2F1 mice, Lymphoma 8 ip, survival T/C
Experiment: NCI In Vivo Anticancer Drug Screen. Data for tumor model Lymphoma 8 (intraperitoneal) in CD2F1 (CDF1) mice
Settings: higher = longer survival
Description: The antitumor activity of compounds was measured in mice bearing transplantable tumors. Survival or tumor size were measured and the results are expressed as the measurement made in the treated group (T) divided by the measurement made in the vehicle treated control group (C). The tumor model used in this assay is Lymphoma 8 (intraperitoneal) in CD2F1 (CDF1) mice

Structure (SMILES): Cc1c2oc3c(C)ccc(C(=O)N[C@@H]4C(=O)N[C@H](C(C)C)C(=O)N5CCC[C@H]5C(=O)N(C)CC(=O)N(C)[C@@H](C(C)C)C(=O)O[C@H]4C)c3nc-2c(C(=O)N[C@@H]2C(=O)N[C@H](C(C)C)C(=O)N3CCC[C@H]3C(=O)N(C)CC(=O)N(C)[C@@H](C(C)C)C(=O)O[C@H]2C)c(N)c1=O (I: [aThr][dV]P[Sar][NMeV] / II: [aThr][dV]P[Sar][NMeV]; ester I:1-I:C, II:1-II:C; linker I:N-II:N via Actinocin(9to1))
- T/C (endpoint: median survival time, dose: 0.05 mg/kg/injection, schedule: Q01DX002 (ip), vehicle: saline): 103 % of control
- T/C (endpoint: median survival time, dose: 0.05 mg/kg/injection, schedule: Q04DX002 (ip), vehicle: saline): 100 % of control
- T/C (endpoint: median survival time, dose: 0.1 mg/kg/injection, schedule: Q04DX002 (ip), vehicle: saline): 92 % of control
- T/C (endpoint: median survival time, dose: 0.2 mg/kg/injection, schedule: Q01DX002 (ip), vehicle: saline): 106 % of control
- T/C (endpoint: median survival time, dose: 0.2 mg/kg/injection, schedule: Q04DX002 (ip), vehicle: saline): 100 % of control

Structure (SMILES): CC[C@H]1CN2CCc3cc(OC)c(OC)cc3[C@@H]2C[C@@H]1C[C@H]1NCCc2cc(OC)c(OC)cc21
- T/C (endpoint: median survival time, dose: 1.87 mg/kg/injection, schedule: Q04DX003 (ip), vehicle: saline): 107 % of control
- T/C (endpoint: median survival time, dose: 2.5 mg/kg/injection, schedule: Q04DX003 (ip), vehicle: saline): 103 % of control
- T/C (endpoint: median survival time, dose: 3.7 mg/kg/injection, schedule: Q04DX003 (ip), vehicle: water): 107 % of control
- T/C (endpoint: median survival time, dose: 3.75 mg/kg/injection, schedule: Q04DX003 (ip), vehicle: saline): 111 % of control
- T/C (endpoint: median survival time, dose: 5.0 mg/kg/injection, schedule: Q04DX003 (ip), vehicle: saline): 100 % of control
- T/C (endpoint: median survival time, dose: 7.5 mg/kg/injection, schedule: Q04DX003 (ip), vehicle: saline): 111 % of control
- T/C (endpoint: median survival time, dose: 7.5 mg/kg/injection, schedule: Q04DX003 (ip), vehicle: water): 107 % of control
- T/C (endpoint: median survival time, dose: 10.0 mg/kg/injection, schedule: Q04DX003 (ip), vehicle: saline): 100 % of control
- T/C (endpoint: median survival time, dose: 15.0 mg/kg/injection, schedule: Q04DX003 (ip), vehicle: saline): 118 % of control
- T/C (endpoint: median survival time, dose: 15.0 mg/kg/injection, schedule: Q04DX003 (ip), vehicle: water): 107 % of control
- T/C (endpoint: median survival time, dose: 20.0 mg/kg/injection, schedule: Q04DX003 (ip), vehicle: saline): 103 % of control

Structure (SMILES): COc1cccc2c1C(=O)c1c(O)c3c(c(O)c1C2=O)C[C@@](O)(C(C)=O)C[C@@H]3OC1CC(N)C(O)C(C)O1 (stereo partly drawn)
- T/C (endpoint: median survival time, dose: 1.25 mg/kg/injection, schedule: Q01DX005 (ip), vehicle: saline): 96 % of control and 101 % of control
- T/C (endpoint: median survival time, dose: 2.5 mg/kg/injection, schedule: Q01DX005 (ip), vehicle: saline): 100 % of control and 105 % of control
- T/C (endpoint: median survival time, dose: 5.0 mg/kg/injection, schedule: Q01DX005 (ip), vehicle: saline): 123 % of control
- T/C (endpoint: median survival time, dose: 10.0 mg/kg/injection, schedule: Q01DX005 (ip), vehicle: saline): 82 % of control

Structure (SMILES): CN(Cc1cnc2nc(N)nc(N)c2n1)c1ccc(C(=O)N[C@@H](CCC(=O)O)C(=O)O)cc1
- T/C (endpoint: median survival time, dose: 0.75 mg/kg/injection, schedule: Q01DX005 (ip), vehicle: saline): 188 % of control and 195 % of control
- T/C (endpoint: median survival time, dose: 1.5 mg/kg/injection, schedule: Q01DX005 (ip), vehicle: saline): 161 % of control and 172 % of control
- T/C (endpoint: median survival time, dose: 3.0 mg/kg/injection, schedule: Q01DX005 (ip), vehicle: saline): 53 % of control

Structure (SMILES): NC(CC(=O)NO)C(=O)O (stereo not drawn)
- T/C (endpoint: median survival time, dose: 100.0 mg/kg/injection, schedule: Q01DX005 (ip), vehicle: water): 100 % of control
- T/C (endpoint: median survival time, dose: 200.0 mg/kg/injection, schedule: Q01DX005 (ip), vehicle: water): 108 % of control
- T/C (endpoint: median survival time, dose: 400.0 mg/kg/injection, schedule: Q01DX005 (ip), vehicle: water): 108 % of control

Structure (SMILES): CN(C)C(=O)/N=N/C(=O)N(C)C
- T/C (endpoint: median survival time, dose: 12.5 mg/kg/injection, schedule: Q01DX005 (ip), vehicle: saline): 95 % of control and 96 % of control and 98 % of control
- T/C (endpoint: median survival time, dose: 25.0 mg/kg/injection, schedule: Q01DX005 (ip), vehicle: saline): 90 % of control and 92 % of control and 96 % of control
- T/C (endpoint: median survival time, dose: 50.0 mg/kg/injection, schedule: Q01DX005 (ip), vehicle: saline): 90 % of control and 91 % of control and 104 % of control
- T/C (endpoint: median survival time, dose: 100.0 mg/kg/injection, schedule: Q01DX005 (ip), vehicle: saline): 88 % of control and 90 % of control (2×)

Structure (SMILES): Nc1nc(=S)c2ncn(C3OC(CO)C(O)C3O)c2[nH]1 (stereo not drawn)
- T/C (endpoint: survival time, mean or median, dose: 4.0 mg/kg/injection, schedule: Q01DX010 (ip), vehicle: saline): 150 % of control
- T/C (endpoint: survival time, mean or median, dose: 8.0 mg/kg/injection, schedule: Q01DX010 (ip), vehicle: saline): 118 % of control
- T/C (endpoint: survival time, mean or median, dose: 16.0 mg/kg/injection, schedule: Q01DX010 (ip), vehicle: saline): 86 % of control
